According to patent US20150105252A1, “SUBSTITUTED PYRAZOLES AS HERBICIDES” (E I DU PONT DE NEMOURS AND COMPANY, priority 2013, published 2015):

Experiments:
foxtail, green = assay: Test D preemergence; type: in vivo, Setaria viridis; conditions: for Plant response rating, Foxtail, Green: Preemergence, scale 0 to 100
Source text: (§1) Seeds of plant species selected from bluegrass (annual bluegrass, Poa annua), blackgrass (Alopecurus myosuroides), canarygrass (littleseed canarygrass, Phalaris minor), chickweed (common chickweed, Stellaria media), galium (catchweed bedstraw, Galium aparine), bromegrass, downy (downy bromegrass, Bromus tectorum), field poppy (Papaver rhoeas), field violet (Viola arvensis), foxtail, green (green foxtail, Setaria viridis), deadnettle (henbit deadnettle, Lamium amplexicaule), ryegrass, Italian (Italian ryegrass, Lolium multiflorum), kochia (Kochia scoparia), lambsquarters (Chenopodium album), oilseed rape (Brassica napus), pigweed (redroot pigweed, Amaranthus retroflexus), chamomile (scentless chamomile, Matricaria inodora), speedwell (bird's-eye speedwell, Veronica persica), barley, spring (spring barley, Hordeum vulgare), wheat, spring (spring wheat, Triticum aestivum), buckwheat, wild (wild buckwheat, Polygonum convolvulus), mustard, wild (wild mustard, Sinapis arvensis), oat, wild (wild oat, Avena fatua), radish, wild (wild radish, Raphanus raphanistrum), windgrass (Apera spica-venti), Russian thistle (Salsola kali), barley, winter (winter barley, Hordeum vulgare), and wheat, winter (winter wheat, Triticum aestivum) were planted into a silt loam soil and treated preemergence with test chemicals formulated in a non-phytotoxic solvent mixture which included a surfactant.
(§2) At the same time, these species were planted in pots containing Redi-Earth® planting medium (Scotts Company, 14111 Scottslawn Road, Marysville, Ohio 43041) comprising spaghnum peat moss, vermiculite, wetting agent and starter nutrients and treated with postemergence applications of the test chemicals formulated in the same manner. Plants ranged in height from 2 to 18 cm (1- to 4-leaf stage). Treated plants and controls were maintained in a controlled growth environment for 14 to 21 days after which time all species were compared to controls and visually evaluated. Plant response ratings, summarized in Table D, are based on a scale of 0 to 100 where 0 is no effect and 100 is complete control. A dash (-) response means no test result.

buckwheat, wild = assay: Test D postemergence; type: in vivo, Polygonum convolvulus; conditions: scale 0 to 100
Source text: as §1, §2

field violet [1] = assay: Test D postemergence; type: in vivo, Viola arvensis; conditions: scale 0 to 100
Source text: as §1, §2

canarygrass = assay: Test D postemergence; type: in vivo, Phalaris minor; conditions: scale 0 to 100
Source text: as §1, §2

mustard, wild = assay: Test D preemergence; type: in vivo, Sinapis arvensis; conditions: Preemergence, scale 0 to 100
Source text: as §1, §2

kochia [2] = assay: Test D preemergence; type: in vivo, Kochia scoparia; conditions: for Plant response rating, Kochia: Preemergence, scale 0 to 100
Source text: as §1, §2

kochia [3] = assay: Test D postemergence; type: in vivo, Kochia scoparia; conditions: scale 0 to 100
Source text: as §1, §2

galium = assay: Test D postemergence; type: in vivo, Galium aparine; conditions: scale 0 to 100
Source text: as §1, §2

chickweed = assay: Test D postemergence; type: in vivo, Stellaria media; conditions: scale 0 to 100
Source text: as §1, §2

chamomile = assay: Test D preemergence; type: in vivo, Matricaria inodora; conditions: for Plant response rating, Chamomile: Preemergence, scale 0 to 100
Source text: as §1, §2

field poppy = assay: Test D postemergence; type: in vivo, Papaver rhoeas; conditions: scale 0 to 100
Source text: as §1, §2

radish, wild = assay: Test D preemergence; type: in vivo, Raphanus raphanistrum; conditions: for Plant response rating, Radish, Wild: Preemergence, scale 0 to 100
Source text: as §1, §2

field violet [4] = assay: Test D preemergence; type: in vivo, Viola arvensis; conditions: for Plant response rating, Field Violet: Preemergence, scale 0 to 100
Source text: as §1, §2

bluegrass [5] = assay: Test D preemergence; type: in vivo, Poa annua; conditions: for Plant response rating, Bluegrass: Preemergence, scale 0 to 100
Source text: as §1, §2

windgrass = assay: Test D postemergence; type: in vivo, Apera spica-venti; conditions: scale 0 to 100
Source text: as §1, §2

bromegrass, downy [6] = assay: Test D postemergence; type: in vivo, Bromus tectorum; conditions: scale 0 to 100
Source text: as §1, §2

deadnettle = assay: Test D postemergence; type: in vivo, Lamium amplexicaule; conditions: scale 0 to 100
Source text: as §1, §2

bromegrass, downy [7] = assay: Test D preemergence; type: in vivo, Bromus tectorum; conditions: for Plant response rating, Bromegrass, Downy: Preemergence, scale 0 to 100
Source text: as §1, §2

bluegrass [8] = assay: Test D postemergence; type: in vivo, Poa annua; conditions: scale 0 to 100
Source text: as §1, §2

[9] = 16 g ai/ha, taken as preemergence

Structure (SMILES): CCc1cc(C(=O)NOC(C)C)nn1Cc1cccc(OC(F)(F)F)c1 [Compound 70]
- Plant response rating (scale 0 to 100), Foxtail, Green (foxtail, green; [9]): 0
- Plant response rating, Foxtail, Green (foxtail, green; 31 g ai/ha): 0
- Plant response rating, Foxtail, Green (foxtail, green; 62 g ai/ha): 0
- Plant response rating, Foxtail, Green (foxtail, green; 125 g ai/ha): 20
- Plant response rating, Foxtail, Green (foxtail, green; 250 g ai/ha): 100
- Plant response rating, Buckwheat, Wild (buckwheat, wild; Postemergence, 16 g ai/ha): 10
- Buckwheat, Wild plant response rating (buckwheat, wild; Postemergence, 31 g ai/ha): 20
- Buckwheat, Wild plant response rating (buckwheat, wild; Postemergence, 125 g ai/ha): 20
- Buckwheat, Wild plant response rating (buckwheat, wild; Postemergence, 250 g ai/ha): 35
- Buckwheat, Wild plant response rating (buckwheat, wild; postemergence, 62 g ai/ha): 20
- Plant response rating, Field Violet (field violet [1]; Postemergence, 16 g ai/ha): 20
- Field Violet plant response rating (field violet [1]; Postemergence, 31 g ai/ha): 40
- Field Violet plant response rating (field violet [1]; Postemergence, 125 g ai/ha): 75
- Field Violet plant response rating (field violet [1]; Postemergence, 250 g ai/ha): 75
- Field Violet plant response rating (field violet [1]; postemergence, 62 g ai/ha): 40
- Plant response rating, Canarygrass (canarygrass; Postemergence, 16 g ai/ha): 0
- Canarygrass plant response rating (canarygrass; Postemergence, 31 g ai/ha): 0
- Canarygrass plant response rating (canarygrass; Postemergence, 125 g ai/ha): 0
- Canarygrass plant response rating (canarygrass; Postemergence, 250 g ai/ha): 10
- Canarygrass plant response rating (canarygrass; postemergence, 62 g ai/ha): 0
- Plant response rating, Mustard, Wild (mustard, wild; 31 g ai/ha): 0
- Plant response rating, Mustard, Wild (mustard, wild; 62 g ai/ha): 100
- Plant response rating, Mustard, Wild (mustard, wild; 125 g ai/ha): 100
- Plant response rating, Mustard, Wild (mustard, wild; 250 g ai/ha): 100
- Plant response rating (scale 0 to 100), Kochia (kochia [2]; [9]): 0
- Plant response rating, Kochia (kochia [2]; 31 g ai/ha): 10
- Plant response rating, Kochia (kochia [2]; 62 g ai/ha): 20
- Plant response rating, Kochia (kochia [2]; 125 g ai/ha): 30
- Plant response rating, Kochia (kochia [2]; 250 g ai/ha): 50
- Plant response rating, Kochia (kochia [3]; Postemergence, 16 g ai/ha): 40
- Kochia plant response rating (kochia [3]; Postemergence, 31 g ai/ha): 85
- Kochia plant response rating (kochia [3]; Postemergence, 125 g ai/ha): 98
- Kochia plant response rating (kochia [3]; Postemergence, 250 g ai/ha): 95
- Kochia plant response rating (kochia [3]; postemergence, 62 g ai/ha): 70
- Plant response rating, Galium (galium; Postemergence, 16 g ai/ha): 50
- Galium plant response rating (galium; Postemergence, 31 g ai/ha): 60
- Galium plant response rating (galium; Postemergence, 125 g ai/ha): 75
- Galium plant response rating (galium; Postemergence, 250 g ai/ha): 80
- Galium plant response rating (galium; postemergence, 62 g ai/ha): 70
- Plant response rating, Chickweed (chickweed; Postemergence, 16 g ai/ha): 30
- Chickweed plant response rating (chickweed; Postemergence, 31 g ai/ha): 30
- Chickweed plant response rating (chickweed; Postemergence, 125 g ai/ha): 70
- Chickweed plant response rating (chickweed; Postemergence, 250 g ai/ha): 85
- Chickweed plant response rating (chickweed; postemergence, 62 g ai/ha): 70
- Plant response rating (scale 0 to 100), Chamomile (chamomile; [9]): 0
- Plant response rating, Chamomile (chamomile; 31 g ai/ha): 0
- Plant response rating, Chamomile (chamomile; 62 g ai/ha): 0
- Plant response rating, Chamomile (chamomile; 125 g ai/ha): 15
- Plant response rating, Chamomile (chamomile; 250 g ai/ha): 40
- Plant response rating, Field Poppy (field poppy; Postemergence, 16 g ai/ha): 20
- Field Poppy plant response rating (field poppy; Postemergence, 31 g ai/ha): 70
- Field Poppy plant response rating (field poppy; Postemergence, 125 g ai/ha): 80
- Field Poppy plant response rating (field poppy; Postemergence, 250 g ai/ha): 100
- Field Poppy plant response rating (field poppy; postemergence, 62 g ai/ha): 75
- Plant response rating (scale 0 to 100), Radish, Wild (radish, wild; [9]): 0
- Plant response rating, Radish, Wild (radish, wild; 31 g ai/ha): 0
- Plant response rating, Radish, Wild (radish, wild; 62 g ai/ha): 0
- Plant response rating, Radish, Wild (radish, wild; 125 g ai/ha): 100
- Plant response rating, Radish, Wild (radish, wild; 250 g ai/ha): 100
- Plant response rating (scale 0 to 100), Field Violet (field violet [4]; [9]): 0
- Plant response rating, Field Violet (field violet [4]; 31 g ai/ha): 0
- Plant response rating, Field Violet (field violet [4]; 62 g ai/ha): 0
- Plant response rating, Field Violet (field violet [4]; 125 g ai/ha): 50
- Plant response rating, Field Violet (field violet [4]; 250 g ai/ha): 50
- Plant response rating (scale 0 to 100), Bluegrass (bluegrass [5]; [9]): 0
- Plant response rating, Bluegrass (bluegrass [5]; 31 g ai/ha): 0
- Plant response rating, Bluegrass (bluegrass [5]; 62 g ai/ha): 0
- Plant response rating, Bluegrass (bluegrass [5]; 125 g ai/ha): 0
- Plant response rating, Bluegrass (bluegrass [5]; 250 g ai/ha): 10
- Plant response rating, Windgrass (windgrass; Postemergence, 16 g ai/ha): 0
- Windgrass plant response rating (windgrass; Postemergence, 31 g ai/ha): 0
- Windgrass plant response rating (windgrass; Postemergence, 125 g ai/ha): 0
- Windgrass plant response rating (windgrass; Postemergence, 250 g ai/ha): 0
- Windgrass plant response rating (windgrass; postemergence, 62 g ai/ha): 0
- Plant response rating, Bromegrass, Downy (bromegrass, downy [6]; Postemergence, 16 g ai/ha): 0
- Bromegrass, Downy plant response rating (bromegrass, downy [6]; Postemergence, 31 g ai/ha): 0
- Bromegrass, Downy plant response rating (bromegrass, downy [6]; Postemergence, 125 g ai/ha): 0
- Bromegrass, Downy plant response rating (bromegrass, downy [6]; Postemergence, 250 g ai/ha): 10
- Bromegrass, Downy plant response rating (bromegrass, downy [6]; postemergence, 62 g ai/ha): 0
- Plant response rating, Deadnettle (deadnettle; Postemergence, 16 g ai/ha): 0
- Deadnettle plant response rating (deadnettle; Postemergence, 31 g ai/ha): 10
- Deadnettle plant response rating (deadnettle; Postemergence, 125 g ai/ha): 30
- Deadnettle plant response rating (deadnettle; Postemergence, 250 g ai/ha): 60
- Deadnettle plant response rating (deadnettle; postemergence, 62 g ai/ha): 10
- Plant response rating (scale 0 to 100), Bromegrass, Downy (bromegrass, downy [7]; [9]): 0
- Plant response rating, Bromegrass, Downy (bromegrass, downy [7]; 31 g ai/ha): 0
- Plant response rating, Bromegrass, Downy (bromegrass, downy [7]; 62 g ai/ha): 0
- Plant response rating, Bromegrass, Downy (bromegrass, downy [7]; 125 g ai/ha): 10
- Plant response rating, Bromegrass, Downy (bromegrass, downy [7]; 250 g ai/ha): 20
- Plant response rating, Bluegrass (bluegrass [8]; Postemergence, 16 g ai/ha): 0
- Bluegrass plant response rating (bluegrass [8]; Postemergence, 31 g ai/ha): 0
- Bluegrass plant response rating (bluegrass [8]; Postemergence, 125 g ai/ha): 0
- Bluegrass plant response rating (bluegrass [8]; Postemergence, 250 g ai/ha): 0
- Bluegrass plant response rating (bluegrass [8]; postemergence, 62 g ai/ha): 0
